row,SMILES,logP
1,CCN(CC)CCOC(=O)/C=C/c1cc(OC)c(OC)c(OC)c1,2.84
2,O=C(O)/C=C/c1ccc(O)cc1,1.79
3,CCN(CC)CCOC(=O)/C=C/c1ccccc1,3.61
4,COc1cc(C=CC(=O)O)ccc1O,1.87
5,COc1ccc(/C=C/C(=O)O)cc1,2.68
6,COC(=O)/C=C/c1ccc(O)c(O)c1,2.22
7,COc1ccc(C=CC(=O)O)cc1OC,2.34
8,O=C(O)/C=C/c1ccc2c(c1)OCO2,2.59
9,CCN(CC)CCOC(=O)C=Cc1ccc(OC)c(OC)c1,2.88
10,O=C(O)C=CC=Cc1ccccc1,3.15
11,O=C(C=Cc1ccccc1)OCC=Cc1ccccc1,4.45
12,CCN(CC)CCOC(=O)/C=C/c1ccc(F)cc1,3.52
13,CCOC(=O)/C=C/c1ccc(O)c(O)c1,2.56

# — the SangsterLogP compilation
